Test results reported in article PMC11858597, “Synthesis, Anticancer Screening, and In Silico Evaluations of Thieno[2,3-c]pyridine Derivatives as Hsp90 Inhibitors” (Pharmaceuticals, 2025).

What was measured:
[1] = tested on: HSC3; assay: MTT assay, HSC3 head and neck cancer cells; format: cell-based; settings: for inhibition at 1 µM / inhibition at 10 µM / inhibition at 100 µM: HSC-3, 72 h, read-out: % cell growth inhibition; for inhibition at 1 µM / inhibition at 10 µM / inhibition at 100 µM / % cell growth inhibition: 72 h; for IC50: HSC3, 72 h
Text: (§1) An MTT assay was used to evaluate the final compounds’ anticancer activity against MCF7 and T47D (breast cancer cells), HSC3 (head and neck cancer cells), and RKO (colorectal cancer cells) cell lines, using cisplatin as a reference standard. Table 1 presents the percentage growth inhibition of all compounds against the various cancer cell lines.
(§2) The cancer cell lines MCF7 and T47D (breast cancer cells), HSC3 (head and neck cancer cells), and RKO (colorectal cancer cells) were kindly provided by Prof. Stephan Feller, Institute of Molecular Medicine, Martin Luther University, Halle, Germany. The human fibroblast (PDL) cell line was obtained as a kind gift from Prof. Khaled Al-Qaoud (Yarmouk University, Irbid, Jordan). All cell lines were cultured in Dulbecco’s Modified Eagle’s Medium (DMEM) supplemented with 10% fetal bovine serum, 100 µg/mL streptomycin, 100 U/mL penicillin, and 1% non-essential amino acid at 37 °C with 5% CO2 in a humidified CO2 incubator. The cell cultures were grown to confluence, and the medium was changed two times weekly.
(§3) The MTT (3-[4,5-dimethylthiazol-2-yl]-2,5-diphenyl tetrazolium bromide) assay was used to investigate cell viability and to calculate the half-maximal inhibitory concentration (IC50) values of the compounds 6(a–k) including standard reference cisplatin. Furthermore, […] stock solutions of the compounds were prepared in DMSO where all compounds were completely soluble. Cells were seeded in 96-well tissue culture plates at a density of 6,000 cells/well for MCF7, T47D, and PDL cells and at a density of 4000 cells/well for RKO and HSC3 cells. After 24 h of seeding, investigated cells were treated with three concentrations (1, 10, and 100 µm) of the compounds for 72 h. At the end of the treatment time, the supernatant medium was aspirated, and 50 µL of fresh DMEM containing MTT (0.5 mg/mL) was added to each well. Cells were then incubated at 37 °C for 2–4 h. After that, the medium was completely removed, and 50 µL of DMSO was added to each well to dissolve the precipitated formazan crystals formed by viable cells. Cell viability, represented by the absorbance of the formazan solution, was measured at 570 nm using the Synergy HTX Multimode Reader (BioTek, Vermont, USA), and cell viability was determined as described in the literature. For each concentration, the relative cell viability was calculated as follows: relative cell viability = (mean treatment absorbance/mean control absorbance) × 100%. Assays were performed in triplicate on three independent experiments. […] IC50 values were then calculated using the four-parameter logistic function in the SigmaPlot software (version 12.5) and presented as the mean ± SD from three independent experiments.

[2] = tested on: MCF7; assay: MTT assay, MCF7 breast cancer cells; format: cell-based; settings: for inhibition at 1 µM / inhibition at 10 µM / inhibition at 100 µM / % cell growth inhibition: 72 h; for inhibition at 1 µM / inhibition at 10 µM / inhibition at 100 µM: read-out: % cell growth inhibition; for IC50: MCF7, 72 h
Text: as §1, §2, §3

[3] = tested on: RKO; assay: MTT assay, RKO colorectal cancer cells; format: cell-based; settings: 72 h; for inhibition at 1 µM / inhibition at 10 µM / inhibition at 100 µM: read-out: % cell growth inhibition
Text: as §1, §2, §3

[4] = tested on: T47D; assay: MTT assay, T47D breast cancer cells; format: cell-based; settings: 72 h; for inhibition at 1 µM / inhibition at 10 µM / inhibition at 100 µM: read-out: % cell growth inhibition
Text: as §1, §2, §3

[5] = tested on: PDL; assay: MTT assay, normal fibroblast cell line (PDL); format: cell-based, human; settings: 72 h; for IC50: PDL normal fibroblasts
Text: To understand the selectivity of compounds, a normal fibroblast cell line (human periodontal ligament-PDL) is also included in this IC50 determination.
as §2, §3

SMILES | inhibition at 1 µM ([1]; Homo sapiens, HSC3, 1 µM) | inhibition at 10 µM ([1]; Homo sapiens, HSC3, 10 µM) | inhibition at 100 µM ([1]; Homo sapiens, HSC3, 100 µM) | inhibition at 1 µM ([2]; Homo sapiens, MCF7, 1 µM) | inhibition at 10 µM ([2]; Homo sapiens, MCF7, 10 µM) | inhibition at 100 µM ([2]; Homo sapiens, MCF7, 100 µM) | inhibition at 1 µM ([3]; Homo sapiens, 1 µM) | inhibition at 10 µM ([3]; Homo sapiens, 10 µM) | inhibition at 100 µM ([3]; Homo sapiens, 100 µM) | inhibition at 1 µM ([4]; Homo sapiens, 1 µM) | inhibition at 10 µM ([4]; Homo sapiens, 10 µM) | inhibition at 100 µM ([4]; Homo sapiens, 100 µM) | also measured
CCOC(=O)c1c(NC(=O)CN2CCC(C)CC2)sc2c1CCN(C(=O)OCC)C2 [6b, Diethyl 2-(2-(4-methylpiperidin-1-yl)acetamido)-4,7-dihydrothieno[2,3-c]pyridine-3,6-(5H)-dicarboxylate] | 4.06% | 38% | 79.4% | 2.74% | 29.7% | 83.2% | 10.7% | 39.3% | 94.1% | 7.79% | 24.4% | 82% | –
CCOC(=O)c1c(NC(=O)CN2CCOCC2)sc2c1CCN(C(=O)OCC)C2 [6h, Diethyl 2-(2-morpholinoacetamido)-4,7-dihydrothieno[2,3-c]pyridine-3,6(5H)-di-carboxylate] | 0% | 9.88% | 77.9% | 0% | 20.3% | 77.2% | 8.76% | 19.1% | 93.3% | 0% | 17.8% | 78.2% | –
N.N.[Cl][Pt][Cl] [Cisplatin, reference compound] | – | – | – | – | – | – | – | – | – | – | – | – | % cell growth inhibition ([1]; HSC3, 1 µM): 29.33%; % cell growth inhibition ([1]; HSC3, 10 µM): 84.74%; % cell growth inhibition ([1]; HSC3, 100 µM): 97.87%; IC50 [1]: 2.7 ± 0.2 µM; % cell growth inhibition ([2]; MCF7, 1 µM): 11.23%; % cell growth inhibition ([2]; MCF7, 10 µM): 57.32%; % cell growth inhibition ([2]; MCF7, 100 µM): 97.41%; IC50 [2]: 5.8 ± 0.9 µM; IC50 [5]: 15.5 ± 2.1 µM; % cell growth inhibition ([3]; 1 µM): 46.06%; % cell growth inhibition ([3]; 10 µM): 92.77%; % cell growth inhibition ([3]; 100 µM): 95.04%; IC50 [3]: 1.7 ± 0.4 µM; % cell growth inhibition ([4]; 1 µM): 29.09%; % cell growth inhibition ([4]; 10 µM): 89.65%; % cell growth inhibition ([4]; 100 µM): 98.20%; IC50 [4]: 2.6 ± 0.6 µM
CCOC(=O)c1c(NC(=O)CN2CCN(c3ccccc3OC)CC2)sc2c1CCN(C(=O)OCC)C2 [6g, Diethyl 2-(2-(4-(2-methoxyphenyl)piperazin-1-yl)acetamido)-4,7-dihydrothieno[2,3-c]-pyridine-3,6(5H)-dicarboxylate] | 0% | 15.9% | 56.9% | 3.4% | 6.36% | 57.3% | 0.53% | 14.6% | 68.4% | 0% | 14.2% | 59.9% | % cell growth inhibition ([2]; MCF7, 100 µM): weaker inhibition
CCOC(=O)c1c(NC(=O)CN2CCN(CC)CC2)sc2c1CCN(C(=O)OCC)C2 [6e, Diethyl 2-(2-(4-ethylpiperazin-1-yl)acetamido)-4,7-dihydrothieno[2,3-c]pyridine-3,6(5H)-dicarboxylate] | 3.26% | 5.51% | 75.8% | 4.67% | 11.7% | 74.2% | 6.17% | 7.24% | 90.1% | 5.23% | 3.12% | 79.4% | –
CCOC(=O)c1c(NC(=O)CN2CCNCC2)sc2c1CCN(C(=O)OCC)C2 [6c, Diethyl 2-(2-(piperazin-1-yl)acetamido)-4,7-dihydrothieno[2,3-c]pyridine-3,6(5H)-dicarboxylate] | 6.71% | 30% | 83.4% | 0% | 22.1% | 81% | 17.1% | 30.9% | 93.6% | 3.7% | 28.1% | 80.8% | –
CCOC(=O)c1c(NC(=O)CN2CCN(C(=O)c3ccco3)CC2)sc2c1CCN(C(=O)OCC)C2 [6j, Diethyl 2-(2-(4-(furan-2-carbonyl)piperazin-1-yl)acetamido)-4,7-dihydrothieno[2,3-c]-pyridine-3,6(5H)-dicarboxylate] | 0% | 29.9% | 86.4% | 0% | 16.2% | 76.5% | 0% | 17.3% | 96.8% | 0% | 1.19% | 76% | –
CCOC(=O)c1c(NC(=O)CN2CCN(C(=O)OC(C)(C)C)CC2)sc2c1CCN(C(=O)OCC)C2 [6f, Diethyl 2-(2-(4-(tert-butoxycarbonyl)piperazin-1-yl)acetamido)-4,7-dihydrothieno[2,3-c]-pyridine-3,6(5H)-dicarboxylate] | 0% | 16.8% | 45.8% | 7.34% | 10% | 39% | 6.11% | 17.2% | 47.6% | 7.62% | 16.2% | 34.1% | % cell growth inhibition ([2]; MCF7, 100 µM): weaker inhibition
CCOC(=O)c1c(NC(=O)CN2CCN(c3ncccn3)CC2)sc2c1CCN(C(=O)OCC)C2 [6k, Diethyl 2-(2-(4-(pyrimidin-2-yl)piperazin-1-yl)acetamido)-4,7-dihydrothieno[2,3-c]-pyridine-3,6(5H)-dicarboxylate] | 0% | 11.3% | 86.2% | 0% | 12.2% | 80% | 0% | 22.2% | 96.1% | 0% | 10.1% | 76.5% | –
CCOC(=O)c1c(NC(=O)CN2CCN(C)CC2)sc2c1CCN(C(=O)OCC)C2 [6d, Diethyl 2-(2-(4-methylpiperazin-1-yl)acetamido)-4,7-dihydrothieno[2,3-c]pyridine-3,6-(5H)-dicarboxylate] | 0% | 0% | 83.9% | 1.42% | 3.7% | 79.3% | 0% | 0% | 94.4% | 0% | 2.54% | 82.1% | –
CCOC(=O)c1c(NC(=O)CN2CCCCC2)sc2c1CCN(C(=O)OCC)C2 [6a] | 4.26% | 59.8% | 92.6% | 2.96% | 39.5% | 91.6% | 5.71% | 53% | 93.5% | 9.31% | 38.6% | 88.1% | IC50 ([1]; Homo sapiens, HSC-3): 14.5 ± 4.3 µM; IC50 ([2]; Homo sapiens): 73.7 ± 4.3 µM; % cell growth inhibition ([2]; MCF7, 1 µM): weak inhibition; IC50 ([5]; Homo sapiens, Fibroblast): > 100 µM; toxicity to normal fibroblast cell lines, PDL ([5]; PDL): no toxicity; IC50 ([3]; Homo sapiens): 24.4 ± 7.2 µM; IC50 ([4]; Homo sapiens): 97.2 ± 4.4 µM
